Molecules are shown by their SMILES.

This test deals with T1, recombinant guanylate cyclase reporter cell line (Rattus norvegicus, UniProt P19686+P20595).
T1 construct: expressed in transfected cells
T1 sequence (P20595 1-619): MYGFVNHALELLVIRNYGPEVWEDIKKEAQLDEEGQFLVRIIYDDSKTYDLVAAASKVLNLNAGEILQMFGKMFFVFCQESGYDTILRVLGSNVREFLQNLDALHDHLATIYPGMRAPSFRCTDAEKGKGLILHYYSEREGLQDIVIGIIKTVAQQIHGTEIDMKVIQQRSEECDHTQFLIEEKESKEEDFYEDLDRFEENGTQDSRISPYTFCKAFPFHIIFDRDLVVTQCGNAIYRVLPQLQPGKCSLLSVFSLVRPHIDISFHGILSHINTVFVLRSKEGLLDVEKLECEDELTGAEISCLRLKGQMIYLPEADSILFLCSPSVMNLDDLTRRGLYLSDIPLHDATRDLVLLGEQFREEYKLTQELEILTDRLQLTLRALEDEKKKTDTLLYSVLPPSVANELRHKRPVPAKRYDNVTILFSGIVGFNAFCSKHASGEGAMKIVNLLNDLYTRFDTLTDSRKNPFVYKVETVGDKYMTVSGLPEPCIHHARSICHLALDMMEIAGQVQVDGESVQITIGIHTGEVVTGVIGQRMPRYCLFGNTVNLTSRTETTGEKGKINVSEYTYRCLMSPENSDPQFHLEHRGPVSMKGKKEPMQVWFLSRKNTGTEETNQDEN
T1 sequence (P19686 1-690): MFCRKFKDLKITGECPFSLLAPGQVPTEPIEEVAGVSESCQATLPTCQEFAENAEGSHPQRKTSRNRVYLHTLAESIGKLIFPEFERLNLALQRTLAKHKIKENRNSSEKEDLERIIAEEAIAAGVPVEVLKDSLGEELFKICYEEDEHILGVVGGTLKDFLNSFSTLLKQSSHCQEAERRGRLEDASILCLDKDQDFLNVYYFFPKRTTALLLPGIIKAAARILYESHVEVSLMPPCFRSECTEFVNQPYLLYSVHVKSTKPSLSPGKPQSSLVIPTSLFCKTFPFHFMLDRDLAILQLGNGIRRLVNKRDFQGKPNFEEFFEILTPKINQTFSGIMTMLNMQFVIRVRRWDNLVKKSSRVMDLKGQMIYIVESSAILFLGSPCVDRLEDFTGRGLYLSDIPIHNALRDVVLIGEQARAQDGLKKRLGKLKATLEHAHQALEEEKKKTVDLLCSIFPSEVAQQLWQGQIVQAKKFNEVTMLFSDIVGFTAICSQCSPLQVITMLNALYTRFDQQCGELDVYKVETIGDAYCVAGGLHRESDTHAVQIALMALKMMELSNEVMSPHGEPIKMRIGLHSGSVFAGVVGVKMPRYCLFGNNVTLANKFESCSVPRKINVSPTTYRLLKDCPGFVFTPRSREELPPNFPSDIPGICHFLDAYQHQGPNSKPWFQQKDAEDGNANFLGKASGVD
Kind of test: B-2. Action on recombinant guanylate cyclase reporter cell line. The class given is cell-based. The conditions noted are these: MEC = minimal effective concentration; in some cases mean values from individual determinations. Put shortly:
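Compounds are tested on whole cells carrying a guanylate cyclase reporter construct. The lowest concentration giving an effect is recorded as the MEC.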
Consider `Cc1nc2c(OCc3c(F)cccc3F)cc(Cl)cn2c1C(=O)NCC(N)COC(C)C` (racemic) [Example 217, rac-N-(2-Amino-3-isopropoxypropyl)-6-chloro-8-[(2,6-difluorobenzyl)oxy]-2-methylimidazo[1,2-a]pyridine-3-carboxamide], for which the MEC turned out to be 1.00 µM.
As to `Cc1nc2c(OCc3c(F)cccc3F)cccn2c1C(=O)NCC(C)(N)CCOCc1ccccc1` (racemic) [Example 264, rac-N-[2-amino-4-(benzyloxy)-2-methylbutyl]-8-[(2,6-difluorobenzyl)oxy]-2-methylimidazo[1,2-a]pyridine-3-carboxamide], the MEC was found to be 0.03 µM.
As to `Cc1nc2c(OCc3c(F)cc(F)cc3F)cccn2c1C(=O)NC(CN)c1ccc(F)c(F)c1` (stereo not drawn) [Example 101, ent-N-[2-amino-1-(3,4-difluorophenyl)ethyl]-2-methyl-8-[(2,4,6-trifluorobenzyl)oxy] imidazo[1,2-a]pyridine-3-carboxamide], the MEC is 1.00 µM.
Next, `Cc1cc(OCc2c(F)cccc2F)c2nc(C)c(C(=O)NCC(C)(N)CO)n2c1` (single isomer, unassigned; enantiomer a) [Example 268, ent-N-(2-Amino-3-hydroxy-2-methylpropyl)-8-[(2,6-difluorobenzyl)oxy]-2,6-dimethylimidazo-[1,2-a]pyridine-3-carboxamide (Enantiomer A)]: 0.55 µM.
Regarding `Cc1nc2c(OCc3c(F)cccc3F)cccn2c1C(=O)NCC(C)(N)COCc1ccccc1` (racemic) [Example 263, rac-N-[2-amino-3-(benzyloxy)-2-methylpropyl]-8-[(2,6-difluorobenzyl)oxy]-2-methylimidazo[1,2-a]pyridine-3-carboxamide], the MEC was 1.00 µM.
The value for `Cc1cc(OCc2c(F)cccc2F)c2nc(C)c(C(=O)NCC3(N)CCC3)n2c1` [Example 165, N-[(1-aminocyclobutyl)methyl]-8-[(2,6-difluorobenzyl)oxy]-2,6-dimethylimidazo[1,2-a]-pyridine-3-carboxamide] was 0.10 µM; that for `NCC(NC(=O)c1c(C2CC2)nc2c(OCc3c(F)cccc3F)cccn12)c1ccc(F)c(F)c1` (stereo not drawn) [Example 54, ent-N-[2-amino-1-(3,4-difluorophenyl)ethyl]-2-cyclopropyl-8-[(2,6-difluorobenzyl)oxy]-imidazo[1,2-a]pyridine-3-carboxamide] was 1.00 µM; that for `Cc1nc2c(OCc3c(F)cccc3F)cccn2c1C(=O)NC(CN1CCOCC1)c1ccccc1` (single isomer, unassigned; ent-8) [Example 182, ent-8-[(2,6-Difluorobenzyl)oxy]-2-methyl-N-[2-(morpholin-4-yl)-1-phenylethyl]imidazo[1,2-a]-pyridine-3-carboxamide] was 3.00 µM.
Next, `Cc1nc2c(OCC3CCCCC3)cccn2c1C(=O)NC(CN)c1ccccc1` (racemic) [Example 44, rac-N-(2-Amino-1-phenylethyl)-8-(cyclohexylmethoxy)-2-methylimidazo[1,2-a]pyridine-3-carboxamide]: 0.30 µM; `Cc1cc(OCc2c(F)cccc2F)c2nc(C)c(C(=O)NCC(C)N3CCOCC3)n2c1` (single isomer, unassigned; ent-8) [Example 187, ent-8-[(2,6-Difluorobenzyl)oxy]-2,6-dimethyl-N-[2-(morpholin-4-yl)propyl]imidazo[1,2-a]-pyridine-3-carboxamide]: 0.30 µM.
Next, `Cc1cc(OCc2c(F)cccc2F)c2nc(C)c(C(=O)NC(CN)c3ccc([N+](=O)[O-])cc3)n2c1` (racemic) [Example 384, rac-N-[2-amino-1-(4-nitrophenyl)ethyl]-8-[(2,6-difluorobenzyl)oxy]-2,6-dimethylimidazo[1,2-a]pyridine-3-carboxamide]: 0.30 µM; `CCC(C)(CN)NC(=O)c1c(C)nc2c(OCc3c(F)ccc(F)c3F)cc(C)cn12` (stereo not drawn) [Example 315, ent-N-(1-amino-2-methylbutan-2-yl)-2,6-dimethyl-8-[(2,3,6-trifluorobenzyl)oxy]imidazo[1,2-a]pyridine-3-carboxamide]: 0.30 µM; `CCCC(C)(N)CNC(=O)c1c(CC)nc2c(OCc3c(F)cccc3F)cc(C)cn12` (stereo not drawn) [Example 338, ent-N-(2-amino-2-methylpentyl)-8-[(2,6-difluorobenzyl)oxy]-2-ethyl-6-methylimidazo[1,2-a]pyridine-3-carboxamide]: 0.10 µM.
Regarding `Cc1cc(OCc2c(F)cccc2F)c2nc(C)c(C(=O)NCC(C)(N)Cc3ccccn3)n2c1` (single isomer, unassigned; enantiomer a) [Example 298, ent-N-[2-amino-2-methyl-3-(pyridin-2-yl)propyl]-8-[(2,6-difluorobenzyl)oxy]-2,6-dimethyl-imidazo[1,2-a]pyridine-3-carboxamide (Enantiomer A)], the MEC is 0.10 µM.
Turning to `Cc1nc2c(OCC3CCCCC3)cccn2c1C(=O)NC(CN)c1ccc(F)c(F)c1` (racemic) [Example 46, rac-N-[2-Amino-1-(3,4-difluorophenyl)ethyl]-8-(cyclohexylmethoxy)-2-methylimidazo[1,2-a]-pyridine-3-carboxamide], the MEC stood at 1.00 µM.
The value for `Cc1nc2c(OCc3c(F)cccc3F)cccn2c1C(=O)NC1CC2CCCC(C1)N2C1CC1` (stereo not drawn) [Example 1, N-(9-Cyclopropyl-9-azabicyclo[3.3.1]non-3-yl)-8-[(2,6-difluorobenzyl)oxy]-2-methylimidazo[1,2-a]pyridine-3-carboxamide] was 0.10 µM; that for `Cc1nc2c(OCc3cccc(F)c3F)cccn2c1C(=O)NC(CN)c1ccc(F)c(F)c1` (stereo not drawn) [Example 99, ent-N-[2-amino-1-(3,4-difluorophenyl)ethyl]-8-[(2,3-difluorobenzyl)oxy]-2-methylimidazo[1,2-a]pyridine-3-carboxamide] was 1.00 µM.
Take `Cc1nc2c(OCc3c(F)cccc3F)cc(Cl)cn2c1C(=O)NCCN(CC(F)F)C1CC1` [Example 150, 6-chloro-N-{2-[cyclopropyl(2,2-difluoroethyl)-amino]ethyl}-8-[(2,6-difluorobenzyl)oxy]-2-methylimidazo[1,2-a]pyridine-3-carboxamide]: the MEC worked out at 0.10 µM.
With `Cc1nc2c(OCc3c(F)cccc3F)cccn2c1C(=O)NCC(N)C(F)(F)C(F)F` (single isomer, unassigned) [Example 231, ent-N-(2-Amino-3,3,4,4-tetrafluorobutyl)-8-[(2,6-difluorobenzyl)oxy]-2-methylimidazo[1,2-a]-pyridine-3-carboxamide], the MEC amounted to 0.30 µM.
The value for `Cc1cc(OCc2c(F)cccc2F)c2nc(C)c(C(=O)NC3CCCC(N)C3)n2c1` (stereo not drawn) [Example 160, N-(3-aminocyclohexyl)-8-[(2,6-difluorobenzyl)oxy]-2,6-dimethylimidazo[1,2-a]-pyridine-3-carboxamide] was 1.00 µM; that for `Cc1cc(OCc2c(F)cccc2F)c2nc(C)c(C(=O)NCC(C)(N)C(F)(F)F)n2c1` (single isomer, unassigned) [Example 241, ent-N-(2-Amino-3,3,3-trifluoro-2-methylpropyl)-8-[(2,6-difluorobenzyl)oxy]-2,6-dimethylimidazo-[1,2-a]pyridine-3-carboxamide] was 0.30 µM; that for `Cc1cc(OCc2c(F)cccc2F)c2nc(C)c(C(=O)NCC3(N)CCCCC3)n2c1` [Example 307, N-[(1-aminocyclohexyl)methyl]-8-[(2,6-difluorobenzyl)oxy]-2,6-dimethylimidazo[1,2-a]pyridine-3-carboxamide] was 0.65 µM.
Take `Cc1cc(OCc2c(F)cccc2F)c2nc(C)c(C(=O)NC(C)(C)CN)n2c1` [Example 26, N-(1-amino-2-methylpropan-2-yl)-8-[(2,6-difluorobenzyl)oxy]-2,6-dimethylimidazo [1,2-a]-pyridine-3-carboxamide]: the MEC turned out to be 0.30 µM.
`Cc1nc2c(OCc3c(F)cccc3F)cc(F)cn2c1C(=O)NC(CN)c1ccc(F)c(F)c1` (stereo not drawn) [Example 53, ent-N-[2-Amino-(3,4-difluorophenyl)ethyl]-8-[(2,6-difluorobenzyl)oxy]-6-fluoro-2-methylimidazo[1,2-a]pyridine-3-carboxamide]: the MEC came out at 0.30 µM.
